In patent US6489334B2, “Method for the crystallization of a tetrahydropyridin derivative and resulting crystalline forms” (Sanofi-Synthelabo, priority 1996, dated 2002):

How the values were obtained:
CACO-2 monolayer = format: in vitro ADME
Procedure: A study concerning the determination of the in vitro absorption of SR 57746 A as a micronized form I/III mixture was carried out using the CACO-2 monolayer model. This test, which is widely used as a predictive intestinal epithelial model for drug absorption (P. Artusson, Crit. Rev. Ther. Drug, 1991, 8: 305-330), made it possible to show significant differences in terms of dissolution and permeability between SR 57746 A as a micronized form I/III mixture and the SR 57746 A obtained according to EP 0 101 381.

[1] = Phase I clinical trials on healthy volunteers; format: in vivo
[2] = preclinical animal pharmacology, toxicology and pharmacokinetic studies; format: in vivo, animals
[3] = tested on: amyotrophic lateral sclerosis; details: 2 mg/day; cited from earlier work

Row | SMILES | dissolution and permeability after micronization (CACO-2 monolayer) | rates of dissolution and permeability, compared between the two materials (CACO-2 monolayer) | variability in the pharmacodynamic effects [1] | variability in the plasma concentrations [1] | pharmacokinetic studies on animals ([2]; animals) | activity and behavior in animal pharmacology and toxicology tests ([2]; preclinical trials) | clinical outcome in amyotrophic lateral sclerosis patients [3]
1 | Cl.FC(F)(F)c1cccc(C2=CCN(CCc3ccc4ccccc4c3)CC2)c1 [1-[2-(2-naphthyl)ethyl]-4-(3-trifluoromethylphenyl)-1,2,3,6-tetrahydropyridine hydrochloride] | normalized | significantly different | – | – | – | – | –
2 | Cl.FC(F)(F)c1cccc(C2=CCN(CCc3ccc4ccccc4c3)CC2)c1 [SR 57746 A, 1-[2-(2-naphthyl)ethyl]-4-(3-trifluoromethylphenyl)-1,2,3,6-tetrahydropyridine hydrochloride] | – | – | high variability | high variability | constant and reproducible results | constant activity and behavior | proved promising
